How the values were obtained:
[1] = system: twelve individual novel WW domains of WWP1, WWP2, WWP3 and WWP4; test: ELISA based cross affinity mapping, whole panel of novel WW domains; format: binding, human; details: biotinylated peptide-streptavidin/alkaline phosphatase complex, GST fusion proteins
Description: (§1) The 16 day mouse embryo cDNA expression library was diluted 1:1000 in SM solution (100 mM NaCl, 8 mM MgSOv4, 50 mM Tris HCl pH 7.5, 0.01% gelatin). To a sterile test tube, 2 μl of diluted mouse embryo library, 100 μl of 10 mM CaCl2, 100 μl of 10 mM MgCl2 and 100 μl of BL21(DE3)pLysE bacterial cells (grown overnight) were added and incubated for 30 minutes at 37° C. The contents of the tube were mixed with 3 ml of 0.6% top agarose, containing […] chloramphenicol, and poured onto a 2xYT plate (90 mm diameter). For a large primary screen, 10–20 plates were prepared with 3×10^4 pfu per plate. After 6 hours incubation at 37° C., a nitrocellulose filter soaked in 10 mM isopropyl-β-D-thiogalactopyranoside (IPTG) was overlaid on each plate and incubated 3–6 hours at 37° C. Before the filters were removed from the plates, they were marked asymmetrically with India ink in a 18 gauge syringe needle. The plates were stored at 4° C. until ready for the secondary screen. The filters were washed with PBS (137 mM NaCl, 2.7 mM KCl, 4.3 mM Na2HPO4, 1.4 mM KH2PO4)-0.05% Triton X-100 three times at room temperature, 15 minutes each wash, and then placed in a plastic bag containing non-specific blocking solution (PBS-2% BSA) for one hour. In the meantime, 1 ml of 1 mM biotinylated peptide in PBS-0.1% Tween 20 was added to 20 ml of 1 mg/ml streptavidin-alkaline phosphatase (SA-AP) in PBS-0.1% Tween 20 and incubated at 4° C. for 30 minutes. […] Excess biotin-binding sites would then be blocked by addition of 500 pmol biotin. […] Ten μl of 0.1 mM biotin would then be added, and the solution incubated for an additional 15 min.
(§2) To determine the ligand preferences of the novel WW omain-containing clones described in Sections 6.1 and 6.1.1, as well as addressing the issue of whether peptides containing PPPPY (SEQ ID NO:3)-like motifs derived from a variety of proteins could also serve as recognition units and bind to these clones, a cross affinity mapping experiment was performed (FIGS. 15A–D). The peptides shown in FIGS. 15A–D were synthesized, biotinylated, complexed with streptavidin-alkaline phosphatase, and tested in an ELISA based assay for their ability to bind to the twelve individual novel WW domains of WWP1, WWP2, WWP3 and WWP4 which were expressed as GST fusion proteins. The ELISA based cross-affinity experiments were performed essentially as described by Sparks et al. (1996, Proc. Natl. Acad. Sci. 93:1540–1544) with the following modifications. Briefly, microtiter wells were coated with 1–5 μg of fusion protein in 100 mM NaHCO3, blocked with SuperBlock TBS (Pierce) and washed four times with PBS, 0.05% Tween 20. Specific peptide-streptavidin/alkaline phosphatase complexes were added as above and unbound complexes washed five times with PBS, 0.05% Tween 20. Following addition of PNP substrate (p-nitrophenyl phosphate, Kirkegard & Perry Labs), peptide binding was quantitated after 30 min. at O.D. 405 nm. Relative binding measurements from three independent determinations were assigned to a scale as follows: O.D. units 0–0.5=(−), 0.5–1.0=(+), 1.0–2.0=(++), 2.0–3.0=(+++), >3.0=(++++). Peptide binding to human Fyn and Lyn SH3 and SH2 domains was assessed by a filter binding assay (see Section 6.1 and Sparks et al., 1996, Proc. Natl. Acad. Sci 93:1540–1544). Peptide sequences used in cross-affinity experiments correspond to segments of the following genes: RasGap (Database accession # P20936), AP-2 (P05549), p53BP-2 (U09582), IL-6Rα (P22272), voltage-gated chloride channel CLCN5 (X91906), IL-2Rγ (D111086), RSV (D10652), HTLV-1 (D13784), β-dystroglycan (L19711), Formin (X53599), amiloride-sensitive epithelial Na^+ channel ENaCα (P37089), ENaCβ (X87159) and ENaCγ (X87160), muscarinic acetylcholine receptor M4 AChR (P08173), and c-Abl (P00522). Src and Crk SH3 binding peptide sequences were derived from a phage display random peptide library screen (Section 6.1 and Sparks et al., 1996, Proc. Natl. Acad. Sci. 93:1540–1544).

[2] = system: WW domains of WWP2 expressed as GST fusion proteins; test: ELISA based cross affinity mapping, WW domains of WWP2; format: binding, human; details: biotinylated peptide-streptavidin/alkaline phosphatase complex; GST fusion proteins; ELISA
Description: as §1, §2

[3] = system: WW domains of WWP4 expressed as GST fusion proteins; test: ELISA based cross affinity mapping, WW domains of WWP4; format: binding, human; details: biotinylated peptide-streptavidin/alkaline phosphatase complex; GST fusion proteins; ELISA
Description: as §1, §2

[4] = system: WW domains of WWP1 expressed as GST fusion proteins; test: ELISA based cross affinity mapping, WW domains of WWP1; format: binding, human; details: biotinylated peptide-streptavidin/alkaline phosphatase complex; GST fusion proteins; ELISA
Description: as §1, §2

[5] = target: T1, WWP3 WW domain expressed as GST fusion protein (Homo sapiens, UniProt Q96QZ7); test: ELISA based cross affinity mapping, WWP3 WW domain; format: binding; details: biotinylated peptide-streptavidin/alkaline phosphatase complex
T1 construct: made in house
Description: The 16 day mouse embryo cDNA expression library was diluted 1:1000 in SM solution (100 mM NaCl, 8 mM MgSOv4, 50 mM Tris HCl pH 7.5, 0.01% gelatin). To a sterile test tube, 2 μl of diluted mouse embryo library, 100 μl of 10 mM CaCl2, 100 μl of 10 mM MgCl2 and 100 μl of BL21(DE3)pLysE bacterial cells (grown overnight) were added and incubated for 30 minutes at 37° C. The contents of the tube were mixed with 3 ml of 0.6% top agarose, containing […] chloramphenicol, and poured onto a 2xYT plate (90 mm diameter). For a large primary screen, 10–20 plates were prepared with 3×10^4 pfu per plate. After 6 hours incubation at 37° C., a nitrocellulose filter soaked in 10 mM isopropyl-β-D-thiogalactopyranoside (IPTG) was overlaid on each plate and incubated 3–6 hours at 37° C. Before the filters were removed from the plates, they were marked asymmetrically with India ink in a 18 gauge syringe needle. The plates were stored at 4° C. until ready for the secondary screen. The filters were washed with PBS (137 mM NaCl, 2.7 mM KCl, 4.3 mM Na2HPO4, 1.4 mM KH2PO4)-0.05% Triton X-100 three times at room temperature, 15 minutes each wash, and then placed in a plastic bag containing non-specific blocking solution (PBS-2% BSA) for one hour. In the meantime, 1 ml of 1 mM biotinylated peptide in PBS-0.1% Tween 20 was added to 20 ml of 1 mg/ml streptavidin-alkaline phosphatase (SA-AP) in PBS-0.1% Tween 20 and incubated at 4° C. for 30 minutes. As an alternative method of forming multivalent complexes, 50 pmol biotinylated peptide could have been incubated with 2 μg SA-AP (for a biotin:biotin-binding site ratio of 1:1). Excess biotin-binding sites would then be blocked by addition of 500 pmol biotin. As a further alternative, 31.2 μl of 1 mg/ml SA-AP could have been incubated with 15 μl of 0.1 mM biotinylated peptide for 30 min at 4° C. Ten μl of 0.1 mM biotin would then be added, and the solution incubated for an additional 15 min.
as §2, with “Peptide sequences used in cross-affinity experiments correspond to segments of the following genes: RasGap (Database accession # P20936), AP-2 (P05549), p53BP-2 (U09582), IL-6Rα (P22272), voltage-gated chloride channel CLCN5 (X91906), IL-2Rγ (D111086), RSV (D10652), HTLV-1 (D13784), β-dystroglycan (L19711), Formin (X53599), amiloride-sensitive epithelial Na^+ channel ENaCα (P37089), ENaCβ (X87159) and ENaCγ (X87160), muscarinic acetylcholine receptor M4 AChR (P08173), and c-Abl (P00522). Src and Crk SH3 binding peptide sequences were derived from a phage display random peptide library screen (Section 6.1 and Sparks et al., 1996, Proc. Natl. Acad. Sci. 93:1540–1544).” left out

T1 sequence (Q96QZ7 300-337 limits assumed): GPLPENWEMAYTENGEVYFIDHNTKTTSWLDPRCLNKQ

Substance	binding to the novel WW domains (WWP1, WWP2, WWP3, WWP4 panel) [1]	binding to WW domains of WWP2 [2]	binding to WW domains of WWP4 [3]	binding to WW domains of WWP1 [4]	binding to WWP3 WW domain [5]
IL-2R: peptide from interleukin receptor IL-2R (YWAPPCYTLK)	bound to WW domains from one or more of the four novel clones	–	–	–	–
β dystroglycan-2: second peptide from dystrophin interacting molecule β-dystroglycan (YRSPPPYVPP)	bound to WW domains from one or more of the four novel clones	–	–	–	–
β-dystroglycan-1: peptide from dystrophin interacting molecule β-dystroglycan (L19711) (PLPPPEYPNQ)	bound to WW domains from one or more of the four novel clones	–	–	–	–
bWW060: alanine substitution variant of the tyrosine residue of the PPPPY-like domain of WWP4 (NRLDLPPAETFED)	–	abolished binding activity	abolished binding activity	abolished binding activity	–
WBP-2A-Pro3: WBP-2A peptide with substitution of the second proline (SGSGYVQPPAPPYPGPM)	–	is not	is not	–	–
IL-6R: peptide from interleukin receptor IL-6R (TTSPPPPPYS)	bound to WW domains from one or more of the four novel clones	–	–	–	–
WBP-2A-Pro4: WBP-2A peptide with substitution of the third proline residue (SGSGYVQPPPAPYPGPM)	–	absolutely essential for binding	absolutely essential for binding	absolutely essential for binding	absolutely essential for binding
ENaCβ-P616L: mutant ENaCβ peptide, Liddle syndrome missense substitution, PPPNY to PPLNY (PGTPPLNYDSLRL)	–	do not bind	do not bind	do not bind	–
AP-2: peptide with PPPPY-like motif from AP-2 transcription factor (P05549) (PYFPPPYQPI)	bound to WW domains from one or more of the four novel clones	–	–	–	–
RasGap: peptide with PPPPY-like motif from a segment of RasGap (P20936) (PLPPPPYLPP)	bound to WW domains from one or more of the four novel clones	–	–	–	–
biotin - PGTPPPKYNTLRL [ENaCγ]	–	positive interaction	positive interaction	positive interaction	positive interaction
bWW062: alanine substitution variant of the tyrosine residue of the PPPPY-like domain of WWP2 (NRLDLPPAKSYEQ)	–	abolished binding activity	abolished binding activity	abolished binding activity	–
ENaCβ-Y618H: mutant ENaCβ peptide, Liddle syndrome missense substitution, PPPNY to PPPNH (PGTPPPNHDSLRL)	–	do not bind	do not bind	do not bind	–
p53BP-2: peptide with PPPPY-like motif from p53 binding protein-2 (U09582) (YPPYPPPPYPSG)	bound to WW domains from one or more of the four novel clones	–	–	–	–
biotin - PGTPPPNYDSLRL [ENaCβ]	–	positive interaction	positive interaction	positive interaction	positive interaction

Reference: US7279548B2, “Identification and isolation of novel polypeptides having WW domains and methods of using same” (Cytogen Corporation, priority 1996, dated 2007)
